This passage reports inhibition and IC50 results from patent US9422240B2, “Partially saturated nitrogen-containing heterocyclic compound” (TAISHO PHARMACEUTICAL CO., LTD, priority 2012, dated 2016).

Each structure is given as a SMILES string.

Assay [1] concerns the target T1, human PHD2 (Homo sapiens (Human), UniProt Q9GZT9). Briefly: Test 1: human PHD2 inhibitory activity, [14C]-2-oxoglutarate to [14C]-succinic acid radiometric assay with HIF-1α peptide. The assay is classed as biochemical. To be noted: test compound's concentration 1 μM; Test 1, [14C]-2-oxoglutarate radiometric assay; read-out: Percent inhibition (% at 1 μM). The method, boiled down:
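Lysate from HighFive insect cells expressing human PHD2 (4 μg/well) was incubated for 15 min at 37° C with a 19-residue HIF-1α peptide and [14C]-2-oxoglutarate. Unreacted 2-oxoglutarate was precipitated with DNPH and filtered off, and [14C]-succinic acid was counted. Inhibition was calculated relative to substrate-free and compound-free controls.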

The target of assay [2] is T1, human PHD2. Kind of assay: Test 2: human PHD2 inhibitory activity, fluorescence polarization assay of HIF-1α peptide proline hydroxylation. Particulars: for inhibition at 1 µM: test compound's concentration 1 μM, Test 2, fluorescence polarization assay, read-out: Percent inhibition (% at 1 μM); for IC50: human PHD2, fluorescence polarization assay, 20-min incubation at 30° C. Type of assay: biochemical. The method, boiled down:
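Enzyme from lysate of cells expressing human PHD2 (NM_022051), 40 ng/well, added to compound and 19-residue HIF-1α peptide substrate; 20 min at 30° C., EDTA quench. Prolyl hydroxylation detected by HIF-OH antibody binding via fluorescence polarization; inhibition relative to compound-free wells.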
(In fluorescence polarisation assays a small probe gives low polarisation when free and higher when bound to something large.)

T1 sequence (Q9GZT9 whole entry): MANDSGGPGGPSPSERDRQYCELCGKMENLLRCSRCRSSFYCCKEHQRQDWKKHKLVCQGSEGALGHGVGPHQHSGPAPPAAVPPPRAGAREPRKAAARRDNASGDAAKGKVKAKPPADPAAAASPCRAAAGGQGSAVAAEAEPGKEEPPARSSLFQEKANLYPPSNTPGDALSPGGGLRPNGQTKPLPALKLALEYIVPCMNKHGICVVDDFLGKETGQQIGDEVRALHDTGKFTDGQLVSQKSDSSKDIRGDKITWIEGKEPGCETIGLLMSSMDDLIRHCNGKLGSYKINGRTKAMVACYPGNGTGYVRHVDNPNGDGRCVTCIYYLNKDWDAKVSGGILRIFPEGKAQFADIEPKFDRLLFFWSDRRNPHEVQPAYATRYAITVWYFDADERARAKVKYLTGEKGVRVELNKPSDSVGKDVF

In general, inhibition refers to the drop in the measured response relative to a control, in per cent. Consider `O=C(O)CNC(=O)C1=C(O)CC2(CC2)N(Cc2ccc(OCC3CC3)cc2)C1=O` [Ex. 1-251], for which the inhibition at 1 µM in assay [1] stood at 90%; in assay [2], 83%.
The IC50 is the midpoint of a concentration-inhibition curve. Lower therefore signals higher potency. For the compound `O=C(O)CNC(=O)C1=C(O)CCN(Cc2ccc(Oc3ccc(F)cc3)nc2)C1=O` [Ex. 1-252], the inhibition at 1 µM in assay [1] was 104%; in assay [2] it was 98%. In assay [2], half-maximal inhibition (IC50) was put at 0.087 µM.
In the case of `O=C(O)CNC(=O)C1=C(O)CC2(CCCCC2)N(Cc2ccccc2)C1=O` [Ex. 1-253], the figures for the inhibition at 1 µM in assay [1] and in assay [2] were 45% and 49%, respectively.
In the case of `O=C(O)CNC(=O)C1=C(O)CCN(Cc2ccc(Oc3ccc(C(F)(F)F)cc3)nc2)C1=O` [Ex. 1-254], the inhibition at 1 µM in assay [1] stood at 103%. In assay [2], half-maximal inhibition (IC50) was put at 0.024 µM and the inhibition at 1 µM came out at 96%.
Taken in the same sequence, the figures for `Cc1cccc(Oc2ccc(CN3CCC(O)=C(C(=O)NCC(=O)O)C3=O)cn2)c1` [Ex. 1-255] were 99%, 0.066 µM and 90%.
Take `O=C(O)CNC(=O)C1=C(O)CCN(Cc2ccc(Oc3cccc(F)c3)nc2)C1=O` [Ex. 1-256]: the inhibition at 1 µM in assay [1] came to 101%. For the same compound, in assay [2], the IC50 was determined as 0.066 µM and the inhibition at 1 µM turned out to be 91%.
For `Cc1cccc(Oc2ccc(CN3CCC(O)=C(C(=O)NCC(=O)O)C3=O)cc2)c1` [Ex. 1-257], the results for the inhibition at 1 µM in assay [1] and in assay [2] were 95% and 89%, respectively. In assay [2], this compound came in with an IC50 of 0.075 µM.
Regarding `O=C(O)CNC(=O)C1=C(O)CCN(Cc2ccc(Oc3cccc(F)c3)cc2)C1=O` [Ex. 1-258], the inhibition at 1 µM in assay [1] is 94%; in assay [2], 90%. The IC50 in assay [2] is 0.063 µM.
Consider `O=C(O)CNC(=O)C1=C(O)CCN(Cc2ccc(Oc3ccc(F)cc3)cn2)C1=O` [Ex. 1-259], for which the inhibition at 1 µM in assay [1] came to 92%. Besides, in assay [2], it took 0.096 µM to reach half-maximal inhibition (IC50) and the inhibition at 1 µM turned out to be 91%.
As for `O=C(O)CNC(=O)C1=C(O)CCN(Cc2ccc(Sc3ccc(Cl)cc3)nc2)C1=O` [Ex. 1-261], the inhibition at 1 µM turned out to be 99% in assay [1] and 97% in assay [2].
For `O=C(O)CNC(=O)C1=C(O)CCN(Cc2ccc(OC3CCC3)cc2)C1=O` [Ex. 1-262], in that order: 88% and 87%.
As to `Cc1ccccc1-n1ncc(CN2CCC(O)=C(C(=O)NCC(=O)O)C2=O)c1C` [Ex. 1-263], the inhibition at 1 µM in assay [1] amounted to 81%; in assay [2], 83%.
With `O=C(O)CNC(=O)C1=C(O)CCN(Cc2ccc(Oc3ccc(Cl)cc3)cc2)C1=O` [Ex. 1-265], the inhibition at 1 µM in assay [1] came out at 98%; in assay [2], 100%. In assay [2], this compound registered an IC50 of 0.024 µM.
As to `O=C(O)CNC(=O)C1=C(O)CC2(CC2)N(Cc2ccc(C3CC3)cc2)C1=O` [Ex. 1-266], the inhibition at 1 µM came to 83% in assay [1] and 89% in assay [2].
For `O=C(O)CNC(=O)C1=C(O)CC2(CCC2)N(Cc2ccc(OCC3CC3)cc2)C1=O` [Ex. 1-267], in that order: 81% and 86%.
For `Cc1c(CN2CCC(O)=C(C(=O)NCC(=O)O)C2=O)cnn1-c1ccccc1` [Ex. 1-268], the inhibition at 1 µM in assay [1] was found to be 78%; in assay [2] it was 85%.
For the compound `O=C(O)CNC(=O)C1=C(O)CCN(Cc2ccc3c(c2)CCC3)C1=O` [Ex. 1-269], the values for the inhibition at 1 µM in assay [1] and in assay [2] were 85% and 89%, respectively.
With `O=C(O)CNC(=O)C1=C(O)CCN(Cc2ccc3sccc3c2)C1=O` [Ex. 1-270], the inhibition at 1 µM stood at 88% in assay [1] and 90% in assay [2].
Turning to `O=C(O)CNC(=O)C1=C(O)CCN(Cc2ccc(OC3CCCC3)cc2)C1=O` [Ex. 1-271], the inhibition at 1 µM in assay [1] and in assay [2] was 91% in each case.
Turning to `CC1(C)CC(O)=C(C(=O)NCC(=O)O)C(=O)N1Cc1ccc(OC2CCCC2)cc1` [Ex. 1-272], the values for the inhibition at 1 µM in assay [1] and in assay [2] were 65% and 82%, respectively.
For `Cc1ccc(Oc2ccc(CN3CCC(O)=C(C(=O)NCC(=O)O)C3=O)cc2)cn1` [Ex. 1-273], the inhibition at 1 µM in assay [1] was 99%. In addition, in assay [2], inhibition was half-maximal at 0.112 µM (IC50) and the inhibition at 1 µM was 92%.
As to `O=C(O)CNC(=O)C1=C(O)CCN(Cc2ccc(Oc3ccccc3F)nc2)C1=O` [Ex. 1-274], the inhibition at 1 µM in assay [1] was 92%. In assay [2], half-maximal inhibition (IC50) required 0.108 µM and the inhibition at 1 µM is 94%.
On to `Cc1ccccc1Oc1ccc(CN2CCC(O)=C(C(=O)NCC(=O)O)C2=O)cn1` [Ex. 1-275], for which the values for the inhibition at 1 µM in assay [1] and in assay [2] were 85% and 94%, respectively. In addition, the IC50 in assay [2] came to 0.099 µM.
For the compound `Cc1ccc(Oc2ccc(CN3CC(C)(C)C(O)=C(C(=O)NCC(=O)O)C3=O)cn2)cc1` [Ex. 1-276], the inhibition at 1 µM was determined as 93% in assay [1] and 92% in assay [2].
`Cc1ccc(Oc2ccc(CN3CC4(CC4)C(O)=C(C(=O)NCC(=O)O)C3=O)cn2)cc1` [Ex. 1-277]: the inhibition at 1 µM in assay [1] was 108%; in assay [2], 97%.
Consider `Cc1ccc(Oc2ccc(CN3CC4(CCC4)C(O)=C(C(=O)NCC(=O)O)C3=O)cn2)cc1` [Ex. 1-278], for which the inhibition at 1 µM in assay [1] was 93%; in assay [2] it was 94%.
For `O=C(O)CNC(=O)C1=C(O)C2(CC2)CN(Cc2ccc(OCC3CC3)cc2)C1=O` [Ex. 1-279], the inhibition at 1 µM in assay [1] is 90%; in assay [2], 91%.
Consider `Cc1ccc(Oc2ccc(CN3C(=O)C(C(=O)NCC(=O)O)=C(O)CC34CCC4)cn2)cc1` [Ex. 1-280], for which the results for the inhibition at 1 µM in assay [1] and in assay [2] were 109% and 98%, respectively.
For `CC1(C)CC(O)=C(C(=O)NCC(=O)O)C(=O)N1Cc1csc(-c2ccccc2)n1` [Ex. 1-281], in that order: 70% and 77%.
Take `O=C(O)CNC(=O)C1=C(O)CCN(Cc2ccc(Oc3ccccc3F)cc2)C1=O` [Ex. 1-282]: the inhibition at 1 µM in assay [1] is 101%. For the same compound, in assay [2], the IC50 was determined as 0.077 µM and the inhibition at 1 µM was found to be 99%.
For `Cc1ccccc1Oc1ccc(CN2CCC(O)=C(C(=O)NCC(=O)O)C2=O)cc1` [Ex. 1-283], the figures for the inhibition at 1 µM in assay [1] and in assay [2] were 99% and 97%, respectively. In assay [2], the IC50 stood at 0.063 µM.
Taken in the same sequence, the figures for `O=C(O)CNC(=O)C1=C(O)CCN(Cc2ccc(Oc3cccc(Cl)c3)nc2)C1=O` [Ex. 1-284] were 107%, 103% and 0.04 µM.
For the compound `O=C(O)CNC(=O)C1=C(O)CCN(Cc2ccc(Oc3cccc(C(F)(F)F)c3)nc2)C1=O` [Ex. 1-285], the inhibition at 1 µM was determined as 106% in assay [1] and 100% in assay [2]. Moreover, it took 0.043 µM to reach half-maximal inhibition in assay [2] (IC50).
Taken in the same sequence, the figures for `COc1cccc(Oc2ccc(CN3CCC(O)=C(C(=O)NCC(=O)O)C3=O)cc2)c1` [Ex. 1-286] were 95%, 96% and 0.061 µM.
As to `O=C(O)CNC(=O)C1=C(O)CCN(Cc2ccc(Oc3cccc(OC(F)(F)F)c3)nc2)C1=O` [Ex. 1-287], the inhibition at 1 µM in assay [1] worked out at 94%. Further, in assay [2], the IC50 amounted to 0.045 µM and the inhibition at 1 µM came to 104%.
In the case of `O=C(O)CNC(=O)C1=C(O)CCN(Cc2ccc(Oc3ccc(F)cn3)cc2)C1=O` [Ex. 1-288], the inhibition at 1 µM in assay [1] was determined as 90%. Also, in assay [2], the IC50 was determined as 0.146 µM and the inhibition at 1 µM is 91%.
